# Assay results reported in patent US10201585B2, “Methods for treatment of atherosclerosis” (Stealth Peptides International, Inc., priority 2012, dated 2019).
# Where “and” joins values, the source holds several entries; their conditions need not be identical. Identical values can stand only once. Entries after “also recorded” stand apart in the source; their conditions may differ.
# Experiments:
# [1] = test system: Apoprotein E deficient mice; assay: Thoracic aorta lipids (Bligh-Dyer extraction, WAKO kits; TC, FC, CE per mg protein); format: in vivo
# Excerpt: (§1) Apoprotein E deficient mice (Jackson Laboratories, 600 Main Street, Bar Harbor, Me.) were used in this study. The mice were male, 7-8 weeks of age, and between 18-20 g in weight. An initial total cholesterol measurement was made on 30 mice, and the mice were grouped into two groups of 15 to match the total cholesterol measurements. Both groups were fed a “western diet” (40 kcal % butterfat, 0.15% [wt/wt] cholesterol, Harlan Teklad diet TD-88137). Starting at t=0, the control group of 15 mice received vehicle only (phosphate buffered saline at pH 7.4), while the test group of 15 mice received aromatic-cationic peptide reconstituted in phosphate buffered saline. Body weights of the mice were recorded weekly, and mortality checks were performed daily.
# (§2) The aromatic-cationic peptide D-Arg-2′6′-Dmt-Lys-Phe-NH2 (sterile lyophilized powder, reconstituted in phosphate buffered saline) was tested. For the 12-week study, test mice received a single, daily dose of the peptide, subcutaneously at 1 mg/kg. Control mice received a single daily dose of vehicle.
# (§3) Following the 12 week treatment, mice were euthanized within 48 hours after the last dose by CO2 asphyxiation and the vascular tree was perfused with 5 mL of phosphate buffered saline (pH 7.4). The aorta and aortic sinus were removed for examination. Thoracic aorta were isolated, trimmed of fat, and fixed in formalin for 48-72 hours before analysis. For en face analysis, aortas were laid out and pinned on black matrix for photography, and stained with Sudan IV. Vessels were imaged for surface involvement using a Nikon computerized image analysis system and the percent of the aortic surface area covered by lipid was calculated. Two determinations were done for each image (Quan 1 and Quan 2), and the average was computed. The data were then computed by group and statistically analyzed. Following staining and morphometric analysis, total lipids were extracted from the aortas using the Bligh-Dyer method. WAKO Diagnostics kits (WAKO Diagnostics, Inc., 1600 Bellwood Road Richmond, Va. 23237-1326) were then used to evaluate total cholesterol, free cholesterol, and cholesterol ester. Cholesterol levels were quantitate nad expressed relative to protein levels. Values are expressed as μg lipid per mg protein (see e.g., FIG. 1).
# [2] = test system: Apoprotein E deficient mice; assay: Plasma lipid analysis using an autoanalyzer (TC, Trigs, PL, FC, CE by calculation); format: in vivo; design: Plasma Trigs (triglycerides) / Trigs (plasma triglycerides): unit not given beside the values; Plasma CE (cholesterol ester, by calculation) / Plasma PL (phospholipids): unit not given here
# Excerpt: as §1, §2
# Blood was collected every four weeks (orbital plexis) under isoflurane anesthesia (3%) and blood lipids were determined. Plasma lipid analysis was conducted for both groups at t=0, 4, 6, 8, and 12 weeks. Plasma lipid analysis using an autoanalyzer included total cholesterol (TC), triglycerides (Trigs), phospholipids (PL), free cholesterol (FC), and cholesterol ester (CE, by calculation). Gel electrophoresis was used to measure levels of high-density lipoprotein cholesterol (HDL-C), low-density lipoprotein cholesterol (LDL-C), and very low-density lipoprotein cholesterol (VLDL-C).
# [3] = test system: Apoprotein E deficient mice; assay: Total lesion area in aortic root 300 μm across aortic valve (cryosections, lipid staining); format: in vivo; design: Total lesion area in aortic root 300 μm across aortic valve / Total lesion area in aortic root 300 μm across aortic valve, AVE: unit not given here
# Excerpt: as §1
# The aromatic-cationic peptide D-Arg-2′6′-Dmt-Lys-Phe-NH2 (sterile lyophilized powder, reconstituted in phosphate buffered saline) was tested. […]
# For the aortic sinus, the heart and approximately 5 mm of the ascending aorta was cut from the remainder of the aorta. […] The sinus was imaged at 5 step levels in the region of interest, i.e., the aortic root, for a total distance of 300 μm and the lipid-staining areas and measured (total cross sectional area) using a Nikon computerized image analysis system. The data were then computed by group and statistically analyzed.
# [4] = test system: Apoprotein E deficient mice; assay: En face analysis of atherosclerotic lesions, thoracic aorta (Sudan IV, % of aortic surface covered by lipid); format: in vivo; conditions: 12 weeks
# Excerpt: as §1, §2, §3
# fibroblast cells = assay: Coenzyme Q10 levels in fibroblasts treated with peptide; format: cell-based; conditions: 10 nM peptide for 16-24 hours or 5 days, DMEM, versus saline treated (FIG. 5)
# Experimental: Fibroblasts were treated with an aromatic-cationic peptide of the present disclosure, and levels of coenzyme Q10 were evaluated.
# Fibroblasts were culture by methods known in the art, and treated with the aromatic-cationic peptide D-Arg-2′6′-Dmt-Lys-Phe-NH2 as shown in Table 11 below. Data represents the average n=3-6.
# Coenzyme Q10 levels were evaluated by methods known in the art.
# [5] = treated versus vehicle, 12 weeks (Table 8, FIG. 2)
# [6] = μg lipid per mg protein, peptide 1 mg/kg s.c. daily, 12 weeks, individual mouse (sample 16-30)
# [7] = Week 0 (start of treatment, baseline), individual mouse of peptide group (sample 16-30)
# [8] = Week 4, individual test mice (sample # 16-30), listed as aromatic-cationic peptide
# [9] = Week 8, individual test mice (sample # 16-30), listed as aromatic-cationic peptide
# [10] = Week 12, AVE of test mice 16-30
# [11] = Week 12, individual test mice (sample # 16-30), listed as aromatic-cationic peptide
# [12] = treated versus vehicle at 4, 8 and 12 week time points
# [13] = ApoE deficient mice, western diet, peptide 1 mg/kg s.c. daily, individual mouse (sample 16-30)
substance,measurement,setting,value
D-Arg-2′6′-Dmt-Lys-Phe-NH2,"Thoracic aorta FC (free cholesterol), AVE","[1]; group mean of 15 test mice, 12 weeks, vehicle group 7.5",5.7 µg/mg
same,"Thoracic aorta CE (cholesterol ester), AVE","[1]; group mean of 15 test mice, 12 weeks, vehicle group 22.6",14.6 µg/mg
same,"Thoracic aorta TC (total cholesterol), AVE","[1]; group mean of 15 test mice, 12 weeks, vehicle group 30.1",20.4 µg/mg
same,"Cholesterol esters in the thoracic aorta, in words",[1]; [5],lower
same,"Free cholesterol in the thoracic aorta, in words",[1]; [5],lower
same,"Total cholesterol in the thoracic aorta, in words",[1]; [5],lower
same,Thoracic aorta CE (cholesterol ester),[1]; [6],13.8 μg/mg and 2.7 μg/mg and 30.3 μg/mg and 14.7 μg/mg and 30.7 μg/mg and 14.1 μg/mg and 4.6 μg/mg (2×) and 5.6 μg/mg (2×) and 28.5 μg/mg and 21.3 μg/mg and 18.6 μg/mg and 11.4 μg/mg and 13.0 μg/mg
same,Thoracic aorta FC (free cholesterol),[1]; [6],7.6 μg/mg (2×) and 4.0 μg/mg and 5.1 μg/mg and 3.0 μg/mg (2×) and 8.1 μg/mg and 2.7 μg/mg and 3.5 μg/mg and 14.6 μg/mg and 6.6 μg/mg and 3.8 μg/mg and 3.6 μg/mg and 3.3 μg/mg and 9.5 μg/mg
same,Thoracic aorta TC (total cholesterol),[1]; [6],21.4 µg/mg and 6.7 µg/mg and 35.4 µg/mg and 17.7 µg/mg and 38.8 µg/mg and 16.8 µg/mg and 8.1 µg/mg and 20.1 µg/mg and 35.1 µg/mg and 9.4 µg/mg and 24.9 µg/mg and 21.7 µg/mg and 7.9 µg/mg and 19.0 µg/mg and 22.5 µg/mg
same,"Plasma FC (free cholesterol), AVE","[2]; Week 0 (baseline), group mean of 15 test mice, vehicle group 136",142
same,"Plasma Trigs (triglycerides), AVE","[2]; Week 0 (baseline), group mean of 15 test mice, vehicle group 141",140
same,"Plasma CE (cholesterol ester, by calculation), AVE","[2]; Week 0 (baseline), group mean of 15 test mice, vehicle group 275",280
same,"Plasma PL (phospholipids), AVE","[2]; Week 0 (baseline), group mean of 15 test mice, vehicle group 297",309
same,"Plasma TC (total cholesterol), AVE","[2]; Week 0 (baseline), group mean of 15 test mice, vehicle group 411",422
same,"Plasma CE (cholesterol ester, by calculation)",[2]; [7],183 and 197 and 242 and 192 and 207 and 204 and 240 and 366 and 196 and 270 and 297 and 382 and 306 and 331 and 588
same,Plasma FC (free cholesterol),[2]; [7],119 and 121 and 134 (2×) and 110 and 116 and 131 and 129 and 184 and 113 and 139 and 170 and 151 and 159 and 220
same,Plasma PL (phospholipids),[2]; [7],267 (3×) and 308 and 255 and 306 and 298 and 369 and 238 and 320 and 313 and 332 and 343 and 338 and 413
same,Plasma TC (total cholesterol),[2]; [7],302 (2×) and 318 and 376 and 323 and 335 and 369 and 550 and 309 and 409 and 431 and 552 and 457 and 490 and 808
same,Plasma Trigs (triglycerides),[2]; [7],75 and 88 (3×) and 117 and 96 and 71 and 138 and 167 and 136 and 151 and 191 and 188 and 154 and 353
same,CE (plasma cholesterol ester),"[2]; Week 4, AVE of test mice 16-30",610
same,FC (plasma free cholesterol),"[2]; Week 4, AVE of test mice 16-30",387
same,PL (plasma phospholipid),"[2]; Week 4, AVE of test mice 16-30",514
same,TC (plasma total cholesterol),"[2]; Week 4, AVE of test mice 16-30",997
same,Trigs (plasma triglycerides),"[2]; Week 4, AVE of test mice 16-30",58
same,CE (plasma cholesterol ester),[2]; [8],491 and 580 and 622 and 731 and 626 and 417 and 574 and 660 and 515 and 536 and 630 and 761 and 581 and 732 and 701
same,FC (plasma free cholesterol),[2]; [8],308 and 344 and 354 (2×) and 408 and 412 and 256 and 366 and 386 and 320 and 286 and 396 and 462 and 516 and 636
same,PL (plasma phospholipid),[2]; [8],422 and 482 and 452 and 560 and 526 and 320 and 506 and 556 and 446 and 416 and 516 and 580 and 510 and 666 and 750
same,TC (plasma total cholesterol),[2]; [8],799 and 924 and 976 and 1139 and 1038 and 673 and 940 and 1046 and 835 and 822 and 1026 and 1223 and 935 and 1248 and 1337
same,Trigs (plasma triglycerides),[2]; [8],18 (2×) and 39 and 28 and 85 and 59 (2×) and 46 and 108 and 33 and 44 (2×) and 67 and 80 and 144
same,CE (plasma cholesterol ester),"[2]; Week 8, AVE of test mice 16-30",932
same,FC (plasma free cholesterol),"[2]; Week 8, AVE of test mice 16-30",350
same,PL (plasma phospholipid),"[2]; Week 8, AVE of test mice 16-30",493
same,TC (plasma total cholesterol),"[2]; Week 8, AVE of test mice 16-30",1282
same,Trigs (plasma triglycerides),"[2]; Week 8, AVE of test mice 16-30",57
same,CE (plasma cholesterol ester),[2]; [9],940 and 710 and 1119 and 865 and 1153 and 653 and 714 and 1085 and 715 and 670 and 1073 and 1048 and 839 and 1130 and 1267
same,FC (plasma free cholesterol),[2]; [9],322 and 294 (2×) and 386 and 318 and 392 and 290 and 388 and 308 (2×) and 286 and 362 and 366 and 404 and 530
same,PL (plasma phospholipid),[2]; [9],416 and 456 and 474 and 448 and 516 (2×) and 424 and 480 and 488 and 436 and 440 and 556 and 470 and 540 and 728
same,TC (plasma total cholesterol),[2]; [9],1262 and 1004 and 1505 and 1183 and 1545 and 943 and 1008 and 1473 and 1023 and 956 and 1435 and 1414 and 1147 and 1534 and 1797
same,Trigs (plasma triglycerides),[2]; [9],34 (3×) and 31 (2×) and 51 (2×) and 48 and 53 and 43 and 75 and 63 and 39 and 67 and 195
same,CE (plasma cholesterol ester),[2]; [10],681
same,FC (plasma free cholesterol),[2]; [10],322
same,PL (plasma phospholipid),[2]; [10],434
same,TC (plasma total cholesterol),[2]; [10],1003
same,Trigs (plasma triglycerides),[2]; [10],55
same,CE (plasma cholesterol ester),[2]; [11],607 and 335 and 597 and 640 and 1002 and 477 and 445 and 476 and 675 and 687 and 960 and 869 and 339 and 904 and 1201
same,FC (plasma free cholesterol),[2]; [11],291 and 205 and 287 and 296 and 418 and 242 and 229 and 269 and 315 and 312 and 419 and 386 and 219 and 413 and 535
same,PL (plasma phospholipid),[2]; [11],366 and 318 and 320 and 432 and 491 and 321 and 363 and 394 and 374 and 423 and 536 and 521 and 340 and 575 and 741
same,TC (plasma total cholesterol),[2]; [11],898 and 540 and 884 and 937 and 1420 and 719 and 674 and 745 and 990 and 999 and 1379 and 1255 and 558 and 1317 and 1736
same,Trigs (plasma triglycerides),[2]; [11],27 and 49 and 10 and 37 (2×) and 18 and 39 (2×) and 13 and 25 and 74 and 89 and 97 and 112 and 158
same,"Plasma cholesterol ester, in words",[2]; [12],reduces
same,"Plasma free cholesterol, in words",[2]; [12],reduces
same,"Plasma phospholipid levels, in words",[2]; [12],reduces
same,"Plasma total cholesterol, in words",[2]; [12],reduces
same,"Plasma triglycerides, in words",[2]; [12],reduces
same,"Total lesion area in aortic root 300 μm across aortic valve, AVE","[3]; group mean of 15 test mice, 12 weeks, vehicle group 351.77",282.72
same,"Total (mean) lesion area in the aortic root, in words","[3]; treated versus vehicle, 12 weeks (Table 9, FIG. 3)",reduces; also recorded: lower
same,Ave. % of Lesion (average of Quan 1 and Quan 2),[4]; [13],2.615% and 0.892% and 9.027% and 3.019% and 7.009% and 4.833% and 1.996% and 1.205% and 9.948% and 2.763% and 6.814% and 4.734% and 0.834% and 11.239% and 12.990%
same,Quan 1 (first determination of % of the aortic surface covered by lipid),[4]; [13],10.000% and 4.700%
same,Quan 2 (second determination of % of the aortic surface covered by lipid),[4]; [13],0.870%
same,"Ave (average % of the surface of the aortas showing lesions, group)","[4]; group mean of 15 test mice, peptide 1 mg/kg s.c. daily, vehicle group 7.189",5.328%
same,"Atherosclerotic lesions in the aorta (% lesion area), in words","[4]; treated versus vehicle, 1 mg/kg s.c. daily (Table 7, FIG. 1A), 1 mg/kg",reduces; also recorded: lower
same,Coenzyme Q10 levels in fibroblast cells,fibroblast cells,increased
